Numbered stars: 1 amine (or outer) side, 2 acyl side, 3 side chain; on linkers, the order of the positions; unused ones are H or OH. Bridge positions count the residues as written; N and C are the ends. Square brackets hold non-standard residues; d marks the D form. Peptide text beside a SMILES is read from it. * marks the point of attachment. Tartaroyl(2R,3R-(OAc)2) = CC(=O)O[C@@H](C(=O)[*:1])[C@@H](OC(C)=O)C(=O)[*:2]; Phe(4-NO2) = N[C@@H](Cc1ccc([N+](=O)[O-])cc1)C(=O)O; Phe(4-COOH) = N[C@@H](Cc1ccc(C(=O)O)cc1)C(=O)O; Bip = N[C@@H](Cc1ccc(-c2ccccc2)cc1)C(=O)O; dBip = N[C@H](Cc1ccc(-c2ccccc2)cc1)C(=O)O; dPhe(4-NH2) = Nc1ccc(C[C@@H](N)C(=O)O)cc1; Phe(3-OMe) = COc1cccc(C[C@H](N)C(=O)O)c1; dPhe(4-Br) = N[C@H](Cc1ccc(Br)cc1)C(=O)O; dPhe(4-Cl) = N[C@H](Cc1ccc(Cl)cc1)C(=O)O; Phe(4-NH2) = Nc1ccc(C[C@H](N)C(=O)O)cc1; d(hPhe) = N[C@H](CCc1ccccc1)C(=O)O; hPhe = N[C@@H](CCc1ccccc1)C(=O)O; d3Pal = N[C@H](Cc1cccnc1)C(=O)O; 2Thi = N[C@@H](Cc1cccs1)C(=O)O; d2Thi = N[C@H](Cc1cccs1)C(=O)O; dCha = N[C@H](CC1CCCCC1)C(=O)O; Suc = O=C(CCC(=O)[*:2])[*:1]; NHCH2CH2OH = OCCN*; Ava = NCCCCC(=O)O; βAla = NCCC(=O)O
The molecules below were run against T1, TNFα / TNFα receptor (TNFα R1/Fc) (Homo sapiens, UniProt P01375) (assay: Inhibition of binding of TNFα to the TNFα receptor (plate ELISA competition)). Conditions: Activity (IC50, inhibition of TNFα binding to TNFα R1/Fc), Table 2.
T1 construct: purchased R&D Systems
Outline: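 Compound dilutions were preincubated 30 min at RT with 8.33 nM TNFα R1/Fc in PBST with 2% DMSO, then added to wells coated with 15 nM TNFα for 30 min. Bound receptor was detected with HRP anti-human Fc and TMB, read as A450.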

T1 sequence (P01375 77-233 limits assumed, species assumed): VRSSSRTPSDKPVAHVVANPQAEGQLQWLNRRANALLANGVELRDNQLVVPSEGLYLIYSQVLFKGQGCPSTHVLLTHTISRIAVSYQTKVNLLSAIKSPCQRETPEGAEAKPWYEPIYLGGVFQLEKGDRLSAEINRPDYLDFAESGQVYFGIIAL

Row | Compound | IC50
1 | O=C1COc2ccc(cc2)CC(C(=O)O)NC(=O)C(Cc2ccccc2)NC(=O)C(Cc2ccc([N+](=O)[O-])cc2)NC(=O)C(Cc2cccs2)N1 (stereo not shown) [Compound 358] | > 100 µM
2 | O=C1COc2ccc(cc2)C[C@@H](C(=O)N[C@@H](CO)C(=O)O)NC(=O)[C@H](CCc2ccccc2)NC(=O)[C@@H](Cc2ccc(-c3ccccc3)cc2)NC(=O)[C@H](Cc2cccs2)N1 [Compound 486] | < 10 µM

Same assay, conditions: Table 2; read-out: Activity (IC50, inhibition of TNFα binding to TNFα R1/Fc)

Row | Compound | IC50
3 | O=C(O)[C@@H]1Cc2ccc(cc2)NC(=O)[C@H](O)[C@@H](O)C(=O)N[C@H](Cc2ccc(F)c(F)c2)C(=O)N[C@@H](Cc2ccc(-c3ccccc3)cc2)C(=O)N[C@H](Cc2ccccc2)C(=O)N1 [Compound 262] | 10 to 30 µM
4 | O=C(O)C[C@H](NC(=O)[C@@H]1Cc2ccc(cc2)OCC(=O)N[C@@H](Cc2cccs2)C(=O)N[C@@H](Cc2ccc(-c3ccccc3)cc2)C(=O)N[C@@H](Cc2ccccc2)C(=O)N1)C(=O)O [Compound 345] | 30 to 100 µM
5 | O=C1CCC(=O)N[C@H](CC2CCCCC2)C(=O)N[C@@H](Cc2ccc(-c3ccccc3)cc2)C(=O)N[C@H](Cc2ccccc2)C(=O)N[C@H](C(=O)O)Cc2ccc(cc2)N1 [Compound 124] ([dCha][Bip][dF][Phe(4-NH2)]-OH; linker N-4 via Suc) | > 100 µM
6 | O=C1COc2ccc(cc2)C[C@@H](C(=O)N[C@@H](Cc2ccccc2)C(=O)O)NC(=O)[C@H](Cc2ccccc2)NC(=O)[C@H](Cc2ccc(-c3ccccc3)cc2)NC(=O)[C@H](Cc2cccs2)N1 [Compound 229] | < 10 µM
7 | O=C(O)[C@@H]1Cc2ccc(cc2)NC(=O)[C@H](O)[C@@H](O)C(=O)N[C@H](Cc2cccs2)C(=O)N[C@H](Cc2ccc(-c3ccccc3)cc2)C(=O)N[C@@H](Cc2ccccc2)C(=O)N1 [Compound 274] | > 100 µM
8 | CC(=O)N[C@H]1CC(=O)Nc2ccc(cc2)C[C@@H](C(=O)O)NC(=O)[C@@H](Cc2ccccc2)NC(=O)[C@H](Cc2ccc(-c3ccccc3)cc2)NC(=O)[C@@H](Cc2cccs2)NC1=O [Compound 375] (Ac-D[d2Thi][Bip][dF][Phe(4-NH2)]-OH; lactam 1-5) | > 100 µM
9 | O=C1N[C@H](Cc2ccco2)C(=O)N[C@@H](C(=O)O)Cc2ccc(cc2)NC(=O)[C@H](O)[C@@H](O)C(=O)N[C@H](Cc2ccccc2)C(=O)N[C@H]1Cc1ccc(Br)cc1 [Compound 161] | > 100 µM
10 | COc1cccc(C[C@@H]2NC(=O)[C@@H](Cc3cccs3)NC(=O)CCC(=O)Nc3ccc(cc3)C[C@@H](C(=O)O)NC(=O)[C@@H](Cc3ccccc3)NC2=O)c1 [Compound 88] ([d2Thi][Phe(3-OMe)][dF][Phe(4-NH2)]-OH; linker N-4 via Suc) | > 100 µM
11 | CC(=O)O[C@H]1C(=O)Nc2ccc(cc2)C[C@H](C(=O)N[C@@H](Cc2ccccc2)C(=O)O)NC(=O)[C@H](Cc2ccccc2)NC(=O)[C@@H](Cc2ccc(Br)cc2)NC(=O)[C@H](Cc2cccs2)NC(=O)[C@@H]1OC(C)=O [Compound 417] ([2Thi][dPhe(4-Br)]F[dPhe(4-NH2)]F-OH; linker N-4 via Tartaroyl(2R,3R-(OAc)2)) | > 100 µM
12 | C[C@H]1NC(=O)CCC(=O)Nc2ccc(cc2)C[C@@H](C(=O)O)NC(=O)[C@@H](Cc2ccccc2)NC(=O)[C@H](Cc2ccc(-c3ccccc3)cc2)NC1=O [Compound 46] ([dA][Bip][dF][Phe(4-NH2)]-OH; linker N-4 via Suc) | > 100 µM
13 | O=C1COc2ccc(cc2)C[C@@H](C(=O)O)NC(=O)[C@H](Cc2ccccc2)NC(=O)[C@H](Cc2ccc(Br)cc2)NC(=O)[C@H](Cc2cccs2)N1 [Compound 359] | > 100 µM
14 | O=C1CCC(=O)N[C@H](Cc2cccs2)C(=O)N[C@@H](Cc2ccc([N+](=O)[O-])cc2)C(=O)N[C@H](Cc2ccccc2)C(=O)N[C@H](C(=O)O)Cc2ccc(cc2)N1 [Compound 106] ([d2Thi][Phe(4-NO2)][dF][Phe(4-NH2)]-OH; linker N-4 via Suc) | > 100 µM
15 | O=C1CCC(=O)N[C@H](Cc2cccs2)C(=O)N[C@@H](Cc2ccc(-c3ccccc3)cc2)C(=O)N[C@H](Cc2ccccc2)C(=O)N[C@H](C(=O)NCCO)Cc2ccc(cc2)N1 [Compound 205] ([d2Thi][Bip][dF][Phe(4-NH2)]-NHCH2CH2OH; linker N-4 via Suc) | > 100 µM
16 | O=C1CCC(=O)N[C@H](Cc2cccnc2)C(=O)N[C@@H](Cc2ccc(-c3ccccc3)cc2)C(=O)N[C@H](Cc2ccccc2)C(=O)N[C@H](C(=O)O)Cc2ccc(cc2)N1 [Compound 126] ([d3Pal][Bip][dF][Phe(4-NH2)]-OH; linker N-4 via Suc) | > 100 µM
17 | O=C1COc2ccc(cc2)C[C@@H](C(=O)O)NC(=O)[C@@H](CCc2ccccc2)NC(=O)[C@H](Cc2ccc(Cl)cc2Cl)NC(=O)[C@@H](Cc2ccc(C(F)(F)F)cc2)N1 [Compound 148] | 30 to 100 µM
18 | O=C1CCC(=O)N[C@H](Cc2cccs2)C(=O)N[C@@H](Cc2ccc(-c3ccccc3)cc2)C(=O)N[C@H](Cc2ccc(Cl)cc2)C(=O)N[C@H](C(=O)O)Cc2ccc(cc2)N1 [Compound 81] ([d2Thi][Bip][dPhe(4-Cl)][Phe(4-NH2)]-OH; linker N-4 via Suc) | > 100 µM

Now from value to molecule:

Row | IC50 | Compound
19 | > 100 µM | O=C1CCC(=O)N[C@@H](Cc2cccs2)C(=O)N[C@H](Cc2ccc(-c3ccccc3)cc2)C(=O)N[C@H](Cc2ccccc2)C(=O)N[C@H](C(=O)O)Cc2ccc(cc2)N1 [Compound 494] ([2Thi][dBip][dF][Phe(4-NH2)]-OH; linker N-4 via Suc)
20 | > 100 µM | O=C1CCNC(=O)c2ccc(cc2)C[C@@H](C(=O)O)NC(=O)[C@@H](Cc2ccccc2)NC(=O)[C@@H](Cc2ccc(-c3ccccc3)cc2)NC(=O)[C@H](CCc2ccccc2)N1 [Compound 468] ([βAla][hPhe][dBip][dF][Phe(4-COOH)]-OH; lactam N-5)
21 | > 100 µM | O=C1COc2ccc(cc2)C[C@H](C(=O)O)NC(=O)[C@H](Cc2ccccc2F)NC(=O)[C@@H](Cc2ccc(-c3ccccc3)cc2)NC(=O)[C@H](Cc2ccncc2)N1 [Compound 729]
22 | < 10 µM | O=C1COc2ccc(cc2)C[C@@H](C(=O)N[C@H](Cc2ccccc2)C(=O)O)NC(=O)[C@H](CCc2ccccc2)NC(=O)[C@@H](Cc2ccc(-c3ccccc3)cc2)NC(=O)[C@H](Cc2ccc(-c3ccccc3)cc2)N1 [Compound 573]
23 | > 100 µM | O=C1COc2ccc(cc2)C[C@@H](C(=O)O)NC(=O)[C@@H](C/C=C/c2ccccc2)NC(=O)[C@H](Cc2ccc(-c3ccccc3)cc2)NC(=O)[C@@H](Cc2cccs2)N1 [Compound 537]
24 | < 10 µM | O=C1COc2ccc(cc2)C[C@@H](C(=O)O)NC(=O)[C@H](Cc2c[nH]c3ccccc23)NC(=O)[C@@H](Cc2ccc(-c3ccccc3)cc2)NC(=O)[C@H](Cc2cccs2)N1 [Compound 640]
25 | < 10 µM | CC(=O)Nc1ccc(C[C@H](NC(=O)[C@@H]2Cc3ccc(cc3)NC(=O)CCC(=O)N[C@H](CCc3ccccc3)C(=O)N[C@@H](Cc3ccc(-c4ccccc4)cc3)C(=O)N[C@H](Cc3ccccc3)C(=O)N2)C(=O)O)cc1 [Compound 528] ([d(hPhe)][Bip][dF][Phe(4-NH2)][Phe(4-NH2)](Ac)-OH; linker N-4 via Suc)
26 | 30 to 100 µM | O=C(O)CCCCNC(=O)[C@@H]1Cc2ccc(cc2)NC(=O)CCC(=O)N[C@H](Cc2cccs2)C(=O)N[C@@H](Cc2ccc(-c3ccccc3)cc2)C(=O)N[C@H](CCc2ccccc2)C(=O)N1 [Compound 450] ([d2Thi][Bip][d(hPhe)][Phe(4-NH2)][Ava]-OH; linker N-4 via Suc)
27 | < 10 µM | O=C(O)[C@H](Cc1ccccc1)NC(=O)[C@@H]1Cc2ccc(cc2)NC(=O)[C@H](O)[C@@H](O)C(=O)N[C@@H](Cc2cccs2)C(=O)N[C@H](Cc2ccc(-c3ccccc3)cc2)C(=O)N[C@@H](Cc2ccccc2)C(=O)N1 [Compound 435]
28 | 10 to 30 µM | O=C1CCC(=O)N[C@H](CCc2ccccc2)C(=O)N[C@@H](Cc2ccc(C(F)(F)F)cc2)C(=O)N[C@H](Cc2ccccc2)C(=O)Nc2ccc(cc2)C[C@@H](C(=O)O)N1 [Compound 552]
29 | 10 to 30 µM | O=C1COc2ccc(cc2)C[C@H](C(=O)O)NC(=O)[C@H](Cc2c[nH]c3ccccc23)NC(=O)[C@@H](Cc2ccc(-c3ccccc3)cc2)NC(=O)[C@H](Cc2c[nH]c3ccccc23)N1 [Compound 731]
30 | < 10 µM | O=C1COc2ccc(cc2)C[C@@H](C(=O)O)NC(=O)[C@H](CCc2ccccc2)NC(=O)[C@@H](Cc2ccc(-c3ccccc3)cc2)NC(=O)[C@H](Cc2ccc(-c3ccncc3)cc2)N1 [Compound 684]
31 | < 10 µM | O=C1COc2ccc(cc2)C[C@@H](C(=O)O)NC(=O)[C@H](CCc2ccccc2)NC(=O)[C@@H](Cc2ccc(-c3ccccc3)cc2)NC(=O)[C@H](Cc2ccc(-c3ccccc3)cc2)N1 [Compound 510]
32 | < 10 µM | O=C1COc2ccc(cc2)C[C@@H](C(=O)O)NC(=O)[C@H](CCc2ccccc2)NC(=O)[C@@H](Cc2ccc(-c3ccccc3)cc2)NC(=O)[C@H](Cc2ccccc2F)N1 [Compound 677]
33 | > 100 µM | O=C1COc2ccc(cc2)C[C@@H](C(=O)NCCCS(=O)(=O)O)NC(=O)[C@H](CCc2ccccc2)NC(=O)[C@@H](Cc2ccc(-c3ccccc3)cc2)NC(=O)[C@H](Cc2cccs2)N1 [Compound 603]
34 | < 10 µM | O=C1Nc2ccc(cc2)C[C@H](C(=O)N[C@@H](Cc2ccccc2)C(=O)O)NC(=O)[C@@H](Cc2ccccc2)NC(=O)[C@H](Cc2ccc(-c3ccccc3)cc2)NC(=O)[C@@H](Cc2cccs2)NC(=O)C2CC12 (stereo partly shown) [Compound 708]
35 | 30 to 100 µM | O=C1CCC(=O)N[C@H](CCc2ccccc2)C(=O)N[C@@H](Cc2ccc(-c3ccccc3)cc2)C(=O)N[C@H](Cc2ccccc2)C(=O)Nc2ccc(cc2)C[C@@H](C(=O)O)N1 [Compound 550]
36 | 30 to 100 µM | O=C1COc2ccc(cc2)C[C@@H](C(=O)O)NC(=O)[C@H](CCc2ccccc2)NC(=O)[C@@H](Cc2ccc(-c3ccncc3)cc2)NC(=O)[C@H](Cc2ccccn2)N1 [Compound 661]
37 | < 10 µM | O=C1COc2ccc(cc2)C[C@H](C(=O)N[C@H](CCc2ccccc2)C(=O)O)NC(=O)[C@H](Cc2c[nH]c3ccccc23)NC(=O)[C@@H](Cc2ccc(-c3ccccc3)cc2)NC(=O)[C@H](Cc2c[nH]c3ccccc23)N1 [Compound 739]

From patent US8338565B2, “Macrocyclic compounds for inhibition of tumor necrosis factor alpha” (Ensemble Therapeutics Corporation, priority 2008, dated 2012)
